This is an account of results in patent US8012943B2, “Antibacterial agents” (Optimer Pharmaceuticals, Inc., priority 2003, dated 2011).

Each structure is given as a SMILES string. Values after ≈ are worked out from the molar mass of the structure shown. Like-named read-outs stand apart in the source and are kept apart here. A value given as a limit tells only on which side of the number the result lay.

Common to all, as to experiment: MIC, NCCLS broth microdilution
(In broth dilution the organism is exposed to a series of concentrations in liquid medium.)

Assay [1] concerns E. Coli ATCC 25922. The assay is classed as cell-based. Particulars: Escherichia coli, ATCC25922, Table 1. As for the experimental part: (§1) Antibacterial activity of the novel Formula 1 and Formula 2 compounds and their pharmaceutically acceptable addition salts with organic and inorganic acids was determined against a series of microorganisms from the American Type Culture Collection (ATCC) and clinical Streptococcus sp isolates. The ATCC strains included: Staphylococcus aureus, Enterococcus faecium, Klebsiella pneumoniae, Escherichia coli, Salmonella typhimurium, Streptococcus pneumoniae, Streptococcus pyogenes, and Haemophilus influenzae. The clinical strains included macrolide resistant Streptococcus sp. with either Erm or MefA resistance mechanisms. The clinical isolates were identified using the API biochemical identification system (BioMerieux).
(§2) Antimicrobial susceptibility testing was performed according to recommendations by the National Committee for Clinical Laboratory Standards (NCCLS M100-S12, M7-A5). Briefly, two fold dilutions of compounds were made in microtiter plates. Each well of the microtiter plate was inoculated with test microorganisms at a final density 5×10^5 colony forming units (cfu)/mL. The microtiter plates were incubated at 35° C. under aerobic conditions, except for H. influenzae and S. pyogenes which were incubated at 5% CO2. The minimal inhibitory concentration (MIC) was defined as the lowest concentration of compound that inhibited growth. The results of represented examples of this invention on standard test microorganisms and clinical isolates in comparison with azithromycin and telithromycin are shown in Table 1 and Table 2.

Assay [2] has as its system E. faecium ATCC 19434. It is filed as cell-based. Particulars: Enterococcus faecium, ATCC19434, Table 1. The protocol: as §1, §2
Assay [3] concerns K. Pneumonia 13883. It is filed as cell-based. To be noted: Klebsiella pneumoniae, Table 1. The protocol:
as §1, §2

In assay [4] the test system is S. aureus ATCC 29213 (MSSA) MLS-S. It is filed as cell-based. To be noted: Staphylococcus aureus, Table 1. The protocol:
as §1, §2

In assay [5] the test system is S. aureus MRSA 33591. It is filed as cell-based. To be noted: Staphylococcus aureus, Table 1. The protocol:
as §1, §2

The test system of assay [6] is S. pyogenes ATCC 19615. It is filed as cell-based. To be noted: Streptococcus pyogenes, ATCC19615, 5% CO2, Table 1. The protocol: as §1, §2
The test system of assay [7] is S. Typhimurium ATCC 14028. The assay is classed as cell-based. Particulars: Salmonella enterica, Table 1. The protocol: as §1
as §2, with “growth.” for “growth. The results of represented examples of this invention on standard test microorganisms and clinical isolates in comparison with azithromycin and telithromycin are shown in Table 1 and Table 2.”

Assay [8] has as its system S. pneumoniae 163(MefA). It is filed as cell-based, Streptococcus pneumoniae. As for the experimental part: as §1, §2
Assay [9] deals with S. pneumoniae 303(ErmB). It is filed as cell-based, Streptococcus pneumoniae. The protocol:
as §1, §2

In assay [10] the test system is H. influenzae ATCC 49247. It is filed as cell-based, Haemophilus influenzae. Particulars: Haemophilus influenzae, ATCC49247, H. influenzae ATCC 49247, 5% CO2, read-out: MIC. As for the experimental part: as §1, §2
The subject of assay [11] is S. pneumoniae 5032. It is filed as cell-based. To be noted: Streptococcus pneumoniae, Table 2. The protocol:
as §1, §2

Assay [12] has as its system S. pyogenes 1721. It is filed as cell-based. Particulars: Streptococcus pyogenes, Table 2. The protocol:
as §1, §2

Assay [13] has as its system S. pyogenes 1850. It is filed as cell-based. To be noted: Streptococcus pyogenes, Table 2. The protocol:
as §1, §2

The subject of assay [14] is S. pyogenes 3029. It is filed as cell-based. Particulars: Streptococcus pyogenes, Table 2. As for the experimental part:
as §1, §2

Assay [15] relates to S. pyogenes 3262. It is filed as cell-based. To be noted: Streptococcus pyogenes, Table 2. As for the experimental part: as §1, §2
Assay [16] deals with S. pneumoniae 3773 (Erm B). It is filed as cell-based, Streptococcus pneumoniae. To be noted: Streptococcus pneumoniae, Table 2, read-out: MIC. As for the experimental part:
as §1, §2

The subject of assay [17] is S. pneumoniae ATCC 49619. The assay is classed as cell-based, Streptococcus pneumoniae. As for the experimental part: as §1, §2
Where [18] appears, read: Streptococcus pneumoniae, S. pneumoniae 163(MefA), Table 1, read-out: MIC.
The mark [19] stands for this setting: Streptococcus pneumoniae, S. pneumoniae 303(ErmB), Table 1, read-out: MIC.
Setting [20] is: Streptococcus pneumoniae, S. pneumoniae 163 (Mef A), Table 2, read-out: MIC.
[21] abbreviates: Streptococcus pneumoniae, S. pneumoniae ErmB 303, Table 2, read-out: MIC.
The mark [22] stands for this setting: Streptococcus pneumoniae, ATCC49619, Table 2, read-out: MIC.

For the molecule `CC[C@H]1OC(=O)[C@H](C)C(=O)[C@H](C)[C@@H](OC(=O)C2CN(C(=O)OC(C)(C)C)C(C)(C)O2)[C@@](C)(OC)C[C@@H](C)C(=O)[C@H](C)[C@H]2N(CCCCn3cnc(-c4cccnc4)c3)C(=O)O[C@]12C` (stereo partly drawn) [OP-1086], the MIC in [1] was > 64 mg/L; in [2], 4 mg/L (≈ 4.53 µM); in [3] it was > 64 mg/L; in assay [4] it was 4 mg/L (≈ 4.53 µM); in assay [5], > 64 mg/L; in [6], 32 mg/L (≈ 36.3 µM). Besides, the MIC in assay [7] is > 64 mg/L; in [8] (setting [18]), ≤ 0.125 mg/L; in assay [9] (setting [19]), 0.25 mg/L (≈ 0.283 µM); in assay [10] (Table 1), > 64 mg/L.

As to `CC[C@H]1OC(=O)[C@@](C)(F)C(=O)[C@H](C)[C@@H](OC2OC(COC(C)=O)CC(N(C)C)C2O)[C@@](C)(OC)C[C@@H](C)C(=O)[C@H](C)[C@H]2N(CCCCn3cc(-c4cccc(N)n4)nn3)C(=O)O[C@]12C` (stereo partly drawn) [OP-1356, 11-N-{4-[4-(6-Amino-pyridin-2-yl)-[1,2,3]triazol-1-yl]-butyl}-5-(3-dimethylamine-4-deoxy-6-O-acetyl-glucopyranosyl)-3-oxo-2-fluoro-erythronolide A,-11,12-cyclic carbamate], the MIC was 1 mg/L (≈ 1.11 µM) in [11]; 4 mg/L (≈ 4.42 µM) in assay [12]; 0.25 mg/L (≈ 0.277 µM) in assay [13]; 1 mg/L (≈ 1.11 µM) in assay [14]; 4 mg/L (≈ 4.42 µM) in assay [15]; ≤ 0.125 mg/L in assay [8] (setting [20]). The MIC is ≤ 0.125 mg/L in [9] (setting [21]), 0.5 mg/L (≈ 0.553 µM) in assay [16], ≤ 0.125 mg/L in assay [17] (setting [22]) and 1 mg/L (≈ 1.11 µM) in assay [10] (Table 2).

For the molecule `CC[C@H]1OC(=O)[C@@](C)(F)C(=O)[C@H](C)[C@@H](OC2OC(C)CC(N(C)C)C2O)[C@@](C)(OC)C[C@@H](C)C(=O)[C@H](C)[C@H]2N(CCCCn3cc(-c4cccc(N)n4)nn3)C(=O)O[C@]12C` (stereo partly drawn) [OP-1357, 11-N-{4-[4-(6-Amino-pyridin-2-yl)-[1,2,3]triazol-1-yl]-butyl}-5-desosaminyl-3-oxo-2-fluoro-erythronolide A,-11,12-cyclic carbamate], the MIC in assay [11] is 1 mg/L (≈ 1.18 µM); in [12], 2 mg/L (≈ 2.36 µM); in assay [13], 0.25 mg/L (≈ 0.296 µM); in assay [14], 1 mg/L (≈ 1.18 µM); in [15], 1 mg/L (≈ 1.18 µM); in assay [8] (setting [20]) it was ≤ 0.125 mg/L. Besides, the MIC in [9] (setting [21]) was ≤ 0.125 mg/L; in assay [16] it was 1 mg/L (≈ 1.18 µM); in assay [17] (setting [22]), ≤ 0.125 mg/L; in assay [10] (Table 2) it was 4 mg/L (≈ 4.73 µM).

With `CC[C@H]1OC(=O)[C@H](C)C(=O)[C@H](C)[C@@H](O[C@@H]2O[C@H](C)C[C@H](N(C)C)[C@H]2O)[C@](C)(OC)C[C@@H](C)C(=O)[C@H](C)[C@H]2N(CCCCn3cnc(-c4cccnc4)c3)C(=O)O[C@]12C` [Telithromycin, reference compound], the MIC was 16 mg/L (≈ 19.7 µM) in assay [1]; ≤ 0.125 mg/L in [2]; 16 mg/L (≈ 19.7 µM) in [3]; ≤ 0.125 mg/L in [4]; > 64 mg/L in [5]; 1 mg/L (≈ 1.23 µM) in assay [11]. Further, the MIC in assay [12] is 64 mg/L (≈ 78.8 µM); in assay [13], 8 mg/L (≈ 9.85 µM); in assay [14], 16 mg/L (≈ 19.7 µM); in assay [15] it was 32 mg/L (≈ 39.4 µM); in assay [6] it was ≤ 0.125 mg/L; in assay [7] it was 4 mg/L (≈ 4.93 µM). The MIC entry in [8] (S. pneumoniae 163 (Mef A), Table 2) is “<=0.125 mcg/mL”; in [8] (setting [18]), ≤ 0.125 mg/L; in assay [9] (S. pneumoniae ErmB 303, Table 2), “<=0.125 mcg/mL”; in assay [9] (setting [19]), ≤ 0.125 mg/L; in assay [16] it was 1 mg/L (≈ 1.23 µM); in assay [17] (Streptococcus pneumoniae, ATCC49619, Table 1, read-out: MIC), ≤ 0.125 mg/L. Besides, the MIC result in [17] (Table 2) was “<=0.125 mcg/mL”; in assay [10] (Table 1) it was 2 mg/L (≈ 2.46 µM); in assay [10] (Table 2), 4 mg/L (≈ 4.93 µM).
